Test results as given in patent US11541056B2, “3-hydroxy-N-(3-(7H-pyrrolo[2,3-d]pyrimidin-4-yl)phenyl)pyrrolidine-1-carboxamide derivatives” (NOVARTIS AG, priority 2018, dated 2023).
Read-outs that look alike come from different tables or passages of the source.

Experiments:
Assay type in all cases: cell-based
[1] = system: TMD8 cells; experiment: Resazurin cell viability assay in DLBCL cells (TMD8); settings: TMD8 cells (BTK dependent), 50% growth inhibition, read-out: TMD8 Prol GI50
Experimental: (§1) Compounds of the invention were tested in the following cellular assays. The terms in Table 1 are defined as follows: DC50 refers to the concentration at which 50% maximal degradation was observed; deg Amax is the extent of degradation and the value refers to the % protein remaining at the concentration at which maximum degradation is seen; Prol GI50 refers to the proliferation data and defines the concentration at which 50% growth inhibition was observed compared to the vehicle treated control at the end of the incubation time. TMD8 cells are BTK dependent and OCI-LY3 cells are BTK independent.
(§2) Cell Viability Assay in DLBCL (Diffuse Large B-Cell Lymphoma) Cells:
(§3) The effect of the BTK compounds on cell proliferation was measured by a Resazurin (Sigma, #R7017) based cell viability assay. TMD8 (BTK compound sensitive) and OCI-LY3 (BTK compound insensitive) cells were incubated for 72 h at 37° C. and 5% CO2 with the corresponding compound. Resazurin is a non-toxic, cell-permeable substrate that is virtually non-fluorescent. Upon entering living cells, Resazurin (Sigma, #R7017) is reduced to highly fluorescent Resorufin. The metabolic activity was assessed by measuring the fluorescence signal (ex. 530 nm; em. 600 nm).
(§4) TMD8 and OCI-Ly3 cells were seeded at day 0 in triplicates at a cell density of 1×10^4 cells per 150 μl/well in a 96-well plate (Costar #3904). Additional plates were prepared, in order to assess the basal metabolic activity of both cell lines at the beginning of the experiment. For these reference plates, Resazurin (Sigma, #R7017) was added to a final concentration of 13 μg/ml 3 h post seeding and was incubated for 2 h at 37° C. and 5% CO2. Following incubation, the fluorescent signal intensity of the 96-well plates was measured on a Mithras LB940 multimode plate reader at 530/600 nm (Berthold Technologies, Germany).
(§5) In parallel, 3 h post-seeding, test-plates were treated with compound at various concentrations, or with vehicle (DMSO) alone for 3 days. The compound addition to the plates was performed by using a HP D300 digital dispenser (TECAN, Switzerland). The compounds were tested in triplicate, 8-point serial dilution (1:4), with a start concentration of 10 μM for OCI-LY3 and 1 μM for the TMD8 cells, respectively. To assess the relative proliferation of the cells, Resazurin was added to each well directly to the medium to a final concentration of 13 μg/ml. The plates were incubated for 2 h at 37° C. and 5% CO2 to result in a 72 h endpoint. Following incubation, the fluorescent signal intensity of the 96-well plates were measured on a Mithras LB940 multimode plate reader at 530/600 nm (Berthold Technologies, Germany). The formation of Resorufin dye directly correlates with the number of metabolically active cells. For each triplicate treatment the mean and standard deviation were calculated and analyzed via curve fitting software to determine the respective compound concentration resulting in 50% growth inhibition (GI50) values. For each compound GI50 values were typically determined from at least 2 entirely independent experiments.
TMD8 cells were acquired through a license agreement with Tokyo Medical and Dental University, Japan. Cells are cultivated in MEM Alpha (BioConcept, #1-23F01-I, lot. LB04262P) supplemented with 10% FCS (HyClone, GE #SH30066.03, lot AB217603), 2 mM L-Glutamine (BioConcept, #5-10K50-H, lot. LA03467P), 1% Pen/Strep (BioConcept, #4-01F00-H, lot. LB04235P).

[2] = system: OCI-LY3 cells; experiment: Resazurin cell viability assay in DLBCL cells (OCI-LY3); settings: OCI-LY3 cells (BTK independent), 50% growth inhibition, read-out: OCI-LY3 Prol GI50
Experimental: as §1, §2, §3, §4, §5
OCI-LY3 cells were acquired through a license agreement with University Health Network, Toronto, Canada. Cells are cultivated in RPMI1640 media (Gibco, #61870-010, lot. 1894759), supplemented with 10% FCS (HyClone, GE #SH30066.03, lot AB217603), 2 mM L-Glutamine (BioConcept, #5-10K50-H, lot. LA03467P), 1 mM Sodium Pyruvate (BioConcept, #5-60F00-H, lot. LB10510P), 10 mM HEPES (Gibco, #15630-056, lot. 1854074), 1% Pen/Strep (BioConcept, #4-01F00-H, lot. LB04235P).

[3] = molecular target: T1, BTK-GFP (Homo sapiens, UniProt Q06187+Q96SW2); experiment: BTK-GFP protein abundance flow cytometry assay in HEK293A cells; settings: 24 h; for BTK deg Amax %: % protein remaining at concentration of maximum degradation; for DC50: concentration at which 50% maximal degradation was observed
T1 construct: the BTK open reading frame (ORF) was first shuttled from a pcDNA-DEST40-BTK vector (Invitrogen library ID INV_20090504v1); expressed in transfected cells; host or cells: HEK293A cells (Invitrogen R70507), lentiviral transduction with pLenti6-BTK-GFP-Ires-RFP, blasticidin-selected
Experimental: as §1
BTK-GFP and IKZF3-GFP Protein Abundance Flow Cytometry Assay in HEK293A Cells:
Degradation of BTK or IKZF3 was measured in HEK293A cells (Invitrogen R70507) expressing either BTK-GFP and RFP or IKZF3-GFP and RFP from a stably integrated bicistronic BTK-GFP-iresRFP or IKZF3-GFP-iresRFP construct, respectively. Reduction of the GFP signal measured by flow cytometry served as readout for BTK or IKZF3 degradation after degrader treatment.
Stable HEK293A-BTK-GFP-iresRFP cells were maintained in complete growth medium (DMEM high Glucose+10% FCS+1% L-Glutamine+1% NEAA+1% NaPyr.) with passaging performed twice per week. On Day 0, HEK293A-BTK-GFP-iresRFP or HEK293A-IKZF3-GFP-iresRFP and HEK293A-iresRFP cells were seeded at 10,000 cells/well in a 96-well microtiter plate in 260 μl complete medium. On Day 1, cells were treated in duplicate with 10-point 1:3 dilution series of compound using the HP D300 Digital Dispenser (Tecan). DMSO concentrations were normalized across the plate to 0.1%. On Day 2, after 24 h of incubation at 37° C., treatment media was discarded, cells rinsed with 100 ul/well PBS and then detached using 40 ul trypsin/well for 5 min. Trypsin was neutralized with 100 ul/well PBS+20% FCS). Flow cytometry was performed on the samples using the BD FACS CANTO II (Becton Dickinson). Cell identification was then performed using forward (FSC) vs. side scatter (SSC) plots. Single cell discrimination is performed using SSC-Width (SSC-W) vs. SSC-Height (SSC-H) plots. Median GFP values for 5,000 single cells are used to determine BTK levels. Median GFP values from HEK293A-iresRFP are used as a background signal and thus defining 0% BTK signal. Median GFP values from DMSO treated HEK293A-BTK-GFP-iresRFP or HEK293A-IKZF3-GFP-iresRFP are used to define 100% BTK signal for subsequent DC50 curves (concentration at 50% BTK degradation). GFP and RFP are read in the channels called FITC and PE, respectively.
Concentration response curves plotting relative reduction of the GFP signal (measured by flow cytometry) versus 10 compound concentrations (starting concentration 10 μM, 3 fold dilution steps) of the compounds allowed generation of DC50 values.

T1 sequence (Q06187 whole entry): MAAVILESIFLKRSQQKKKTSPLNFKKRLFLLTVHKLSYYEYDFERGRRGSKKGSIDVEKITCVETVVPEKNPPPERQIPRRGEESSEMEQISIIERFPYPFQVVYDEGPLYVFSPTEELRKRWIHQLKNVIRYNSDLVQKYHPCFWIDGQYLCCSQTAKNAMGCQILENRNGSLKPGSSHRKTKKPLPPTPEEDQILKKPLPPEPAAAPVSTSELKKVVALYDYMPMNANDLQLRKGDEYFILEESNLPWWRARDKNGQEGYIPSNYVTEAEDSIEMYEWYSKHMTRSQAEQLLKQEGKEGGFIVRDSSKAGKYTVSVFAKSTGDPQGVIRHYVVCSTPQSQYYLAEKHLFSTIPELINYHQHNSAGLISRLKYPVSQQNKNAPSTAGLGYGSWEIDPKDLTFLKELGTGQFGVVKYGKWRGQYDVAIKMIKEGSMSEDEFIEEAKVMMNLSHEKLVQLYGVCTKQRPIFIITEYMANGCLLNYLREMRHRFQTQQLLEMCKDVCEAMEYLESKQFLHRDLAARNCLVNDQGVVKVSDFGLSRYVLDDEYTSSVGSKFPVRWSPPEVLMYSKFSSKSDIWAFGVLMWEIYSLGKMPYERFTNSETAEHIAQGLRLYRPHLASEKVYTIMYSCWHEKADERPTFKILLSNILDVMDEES
T1 sequence (Q96SW2 whole entry): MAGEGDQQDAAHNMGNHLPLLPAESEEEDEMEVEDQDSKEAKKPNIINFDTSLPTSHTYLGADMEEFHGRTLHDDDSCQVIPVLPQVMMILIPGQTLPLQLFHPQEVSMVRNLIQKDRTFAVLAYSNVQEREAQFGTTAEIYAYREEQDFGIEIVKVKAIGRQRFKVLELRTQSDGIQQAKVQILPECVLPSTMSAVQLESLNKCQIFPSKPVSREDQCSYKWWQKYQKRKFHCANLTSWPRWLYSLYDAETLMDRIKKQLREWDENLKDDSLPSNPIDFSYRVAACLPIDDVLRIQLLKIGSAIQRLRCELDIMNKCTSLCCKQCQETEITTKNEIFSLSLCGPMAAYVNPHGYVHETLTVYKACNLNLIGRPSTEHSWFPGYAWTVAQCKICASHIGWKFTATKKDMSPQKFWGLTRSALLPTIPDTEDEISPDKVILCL
T1 sequence (Q16531 whole entry partner): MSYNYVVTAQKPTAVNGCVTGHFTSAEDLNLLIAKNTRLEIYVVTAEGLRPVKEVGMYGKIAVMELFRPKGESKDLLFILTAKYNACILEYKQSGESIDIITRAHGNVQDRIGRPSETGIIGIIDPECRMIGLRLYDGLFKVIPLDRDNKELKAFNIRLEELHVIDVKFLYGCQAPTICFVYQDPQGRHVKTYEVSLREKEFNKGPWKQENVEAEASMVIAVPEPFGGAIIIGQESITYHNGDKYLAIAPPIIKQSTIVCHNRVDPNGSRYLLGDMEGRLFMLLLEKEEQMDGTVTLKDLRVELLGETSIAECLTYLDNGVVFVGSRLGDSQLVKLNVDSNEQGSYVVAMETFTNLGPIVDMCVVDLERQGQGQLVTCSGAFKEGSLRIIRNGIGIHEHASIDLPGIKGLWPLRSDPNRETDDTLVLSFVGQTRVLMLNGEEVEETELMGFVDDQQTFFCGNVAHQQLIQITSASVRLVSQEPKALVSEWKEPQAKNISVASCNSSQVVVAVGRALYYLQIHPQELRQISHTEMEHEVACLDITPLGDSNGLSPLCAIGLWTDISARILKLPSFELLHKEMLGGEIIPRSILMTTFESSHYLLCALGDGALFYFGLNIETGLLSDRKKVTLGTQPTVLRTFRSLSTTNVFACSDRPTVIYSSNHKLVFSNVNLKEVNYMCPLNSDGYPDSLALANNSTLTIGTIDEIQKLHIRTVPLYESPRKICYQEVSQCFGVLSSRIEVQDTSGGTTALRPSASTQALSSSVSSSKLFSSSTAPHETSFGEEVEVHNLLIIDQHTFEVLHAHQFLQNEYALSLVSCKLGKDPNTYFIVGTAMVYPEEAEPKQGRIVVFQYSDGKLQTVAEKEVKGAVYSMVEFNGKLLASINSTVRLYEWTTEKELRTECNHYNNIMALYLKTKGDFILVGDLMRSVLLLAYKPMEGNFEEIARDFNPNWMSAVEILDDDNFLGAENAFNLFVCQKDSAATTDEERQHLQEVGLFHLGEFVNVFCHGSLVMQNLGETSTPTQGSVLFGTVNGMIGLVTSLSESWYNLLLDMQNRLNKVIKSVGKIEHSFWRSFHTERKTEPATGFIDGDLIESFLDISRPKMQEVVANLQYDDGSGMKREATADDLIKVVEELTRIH

GI50 ([2]; Homo sapiens, OCI-Ly3, 72 h) [nM]	BTK deg Amax % [3] [%]	DC50 [3] [nM]	GI50 ([2]; 72 h) [nM]	Structure (SMILES)	GI50 ([1]; Homo sapiens, TMD8, 72 h) [nM]	GI50 ([1]; 72 h) [nM]
> 10000	4	5.5	–	COc1ccc(C(=O)N2CCC3(CCN(CCc4ccc(-c5cc6c(-c7ccc(F)c(NC(=O)N8C[C@H](CC(C)C)[C@@H](O)C8)c7C)ncnc6[nH]5)cc4)CC3)CC2)cc1N1CCC(=O)NC1=O [Compound 17, (3R,4S)—N-(3-(6-(4-(2-(9-(3-(2,4-dioxotetrahydropyrimidin-1(2H)-yl)-4-methoxybenzoyl)-3,9-diazaspiro[5.5]undecan-3-yl)ethyl)phenyl)-7H-pyrrolo[2,3-d]pyrimidin-4-yl)-6-fluoro-2-methylphenyl)-3-hydroxy-4-isobutylpyrrolidine-1-carboxamide]	0.49	–
3600	4	15.6	–	COc1ccc(C(=O)N2CCC(CCN3CCC(OCc4ccc(-c5cc6c(-c7cc(F)cc(NC(=O)N8C[C@@H](CC(C)C)[C@H](O)C8)c7C)ncnc6[nH]5)cc4)CC3)CC2)cc1N1CCC(=O)NC1=O [Compound 21, (3S,4R)—N-(3-(6-(4-(((1-(2-(1-(3-(2,4-Dioxotetrahydropyrimidin-1 (2H)-yl)-4-methoxybenzoyl)piperidin-4-yl)ethyl)piperidin-4-yl)oxy)methyl)phenyl)-7H-pyrrolo[2,3-d]pyrimidin-4-yl)-5-fluoro-2-methylphenyl)-3-hydroxy-4-isobutylpyrrolidine-1-carboxamide]	1.17	–
3820	3.4	0.7	–	COc1ccc(C(=O)N2CCC(CN3CCC(COc4ccc(-c5cc6c(-c7cc(F)cc(NC(=O)N8C[C@H](CC(C)C)[C@@H](O)C8)c7C)ncnc6[nH]5)cc4)CC3)CC2)cc1N1CCC(=O)NC1=O [Compound 14, (3R,4S)—N-(3-(6-(4-((1-((1-(3-(2,4-Dioxotetrahydropyrimidin-1 (2H)-yl)-4-methoxybenzoyl)piperidin-4-yl)methyl)piperidin-4-yl)methoxy)phenyl)-7H-pyrrolo[2,3-d]pyrimidin-4-yl)-5-fluoro-2-methylphenyl)-3-hydroxy-4-isobutylpyrrolidine-1-carboxamide]	0.24	–
3700	2.4	1.1	–	COc1ccc(C(=O)N2CCC(OCCN3CCC(Oc4ccc(-c5cc6c(-c7cc(F)cc(NC(=O)N8C[C@H](CC(C)C)[C@@H](O)C8)c7C)ncnc6[nH]5)cc4)CC3)CC2)cc1N1CCC(=O)NC1=O [Compound 20, (3R,4S)—N-(3-(6-(4-((1-(2-((1-(3-(2,4-Dioxotetrahydropyrimidin-1(2H)-yl)-4-methoxybenzoyl)piperidin-4-yl)oxy)ethyl)piperidin-4-yl)oxy)phenyl)-7H-pyrrolo[2,3-d]pyrimidin-4-yl)-5-fluoro-2-methylphenyl)-3-hydroxy-4-isobutylpyrrolidine-1-carboxamide]	0.29	–
> 10000	3.7	1.5	–	COc1ccc(C(=O)N2CCC3(CCN(CCc4ccc(-c5cc6c(-c7cc(F)cc(NC(=O)N8C[C@@H](CC(C)C)[C@@H](O)C8)c7C)ncnc6[nH]5)cc4)CC3)CC2)cc1N1CCC(=O)NC1=O [Compound 7, (3R,4R)—N-(3-(6-(4-(2-(9-(3-(2,4-Dioxotetrahydropyrimidin-1(2H)-yl)-4-methoxybenzoyl)-3,9-diazaspiro[5.5]undecan-3-yl)ethyl)phenyl)-7H-pyrrolo[2,3-d]pyrimidin-4-yl)-5-fluoro-2-methylphenyl)-3-hydroxy-4-isobutylpyrrolidine-1-carboxamide]	0.28	–
–	3.3	6.1	> 10000	COc1ccc(C(=O)N2CCC3(CCN(Cc4ccc(-c5cc6c(-c7cc(F)cc(NC(=O)N8CC(O)C(CC(C)C)C8)c7C)ncnc6[nH]5)cc4)CC3)CC2)cc1N1CCC(=O)NC1=O (racemic) [Compound 23, (cis-rac)-N-(3-(6-(4-((9-(3-(2,4-Dioxotetrahydropyrimidin-1(2H)-yl)-4-methoxybenzoyl)-3,9-diazaspiro[5.5]undecan-3-yl)methyl)phenyl)-7H-pyrrolo[2,3-d]pyrimidin-4-yl)-5-fluoro-2-methylphenyl)-3-hydroxy-4-isobutylpyrrolidine-1-carboxamide]	–	2.36
5220	19	4.7	–	CCOc1ccc(C(=O)N2CCC3(CCN(CCc4ccc(-c5cc6c(-c7cc(F)cc(NC(=O)N8C[C@H](CC(C)C)[C@@H](O)C8)c7C)ncnc6[nH]5)cc4)CC3)CC2)cc1N1CCC(=O)NC1=O [Compound 16, (3R,4S)—N-(3-(6-(4-(2-(9-(3-(2,4-dioxotetrahydropyrimidin-1(2H)-yl)-4-ethoxybenzoyl)-3,9-diazaspiro[5.5]undecan-3-yl)ethyl)phenyl)-7H-pyrrolo[2,3-d]pyrimidin-4-yl)-5-fluoro-2-methylphenyl)-3-hydroxy-4-isobutylpyrrolidine-1-carboxamide]	0.26	–
